For six molecules, EC50 results are on record in US12139520B2 (priority 2020, dated 2024).

For test [1], the target named is T1, hAMY3 receptor (Homo sapiens, UniProt O60896+P30988).
T1 sequence (P30988 25-474): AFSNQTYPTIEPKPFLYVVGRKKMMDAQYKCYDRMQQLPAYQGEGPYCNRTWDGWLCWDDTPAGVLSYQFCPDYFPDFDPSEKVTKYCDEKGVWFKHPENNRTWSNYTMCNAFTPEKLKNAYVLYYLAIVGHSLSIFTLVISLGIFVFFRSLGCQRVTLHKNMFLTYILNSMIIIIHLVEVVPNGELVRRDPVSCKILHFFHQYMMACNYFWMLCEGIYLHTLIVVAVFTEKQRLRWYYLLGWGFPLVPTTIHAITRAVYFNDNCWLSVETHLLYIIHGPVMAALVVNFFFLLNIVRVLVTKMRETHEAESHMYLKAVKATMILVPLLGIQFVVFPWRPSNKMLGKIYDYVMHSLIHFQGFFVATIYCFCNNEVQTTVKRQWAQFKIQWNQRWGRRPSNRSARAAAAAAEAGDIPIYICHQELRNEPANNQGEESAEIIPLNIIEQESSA
T1 sequence (O60896 24-148 partner): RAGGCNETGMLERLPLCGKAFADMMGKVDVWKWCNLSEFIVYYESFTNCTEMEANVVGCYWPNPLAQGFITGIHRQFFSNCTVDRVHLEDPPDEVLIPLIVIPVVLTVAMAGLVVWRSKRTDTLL
The test is described as follows: cAMP assay for in vitro receptor activation, hAMY3-R. The following applies: cAMP assay, hAMY3 receptor; read-out: hAMY3R EC50. The test is classed as cell-based. A digest of the protocol: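 Monoclonal cell line stably overexpressing hAMY3 receptor, plated in DPBS with 0.05% casein and 0.5 mM IBMX, was stimulated with graded compound doses for 30 min at room temperature. cAMP accumulation was read by time-resolved FRET one hour after adding detection reagents.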

Test [2] deals with hAM1 receptor (Homo sapiens, UniProt O60895+Q16602). As to the kind of experiment: cAMP assay for in vitro receptor activation, hAM1-R. The following applies: cAMP assay, hAM1 receptor; read-out: hAM1R EC50. The test is classed as cell-based. A digest of the protocol: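 cAMP accumulation was measured in a monoclonal cell line stably overexpressing the hAM1 receptor. Frozen aliquots were thawed and plated at 8000 cells/well in DPBS containing 0.05% casein and 0.5 mM IBMX.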

Numbered stars: 1 amine (or outer) side, 2 acyl side, 3 side chain; on linkers, the order of the positions; unused ones are H or OH. Bridge positions count the residues as written; N and C are the ends. Square brackets hold non-standard residues; d marks the D form. Side chains are listed from the residue outwards. Peptide text beside a SMILES is read from it. * marks the point of attachment. C20 diacid = O=C(O)CCCCCCCCCCCCCCCCCCC(=O)*; γGlu = O=C(O)[C@H](CCC(=O)[*:2])N[*:1]; Hyp = O=C(O)[C@@H]1C[C@@H](O)CN1; NMeI = CC[C@H](C)[C@H](NC)C(=O)O; Aad = N[C@@H](CCCC(=O)O)C(=O)O; AEEA = NCCOCCOCC(=O)O; Sar = CNCC(=O)O

Chain of hAM1 receptor (Q16602 23-461): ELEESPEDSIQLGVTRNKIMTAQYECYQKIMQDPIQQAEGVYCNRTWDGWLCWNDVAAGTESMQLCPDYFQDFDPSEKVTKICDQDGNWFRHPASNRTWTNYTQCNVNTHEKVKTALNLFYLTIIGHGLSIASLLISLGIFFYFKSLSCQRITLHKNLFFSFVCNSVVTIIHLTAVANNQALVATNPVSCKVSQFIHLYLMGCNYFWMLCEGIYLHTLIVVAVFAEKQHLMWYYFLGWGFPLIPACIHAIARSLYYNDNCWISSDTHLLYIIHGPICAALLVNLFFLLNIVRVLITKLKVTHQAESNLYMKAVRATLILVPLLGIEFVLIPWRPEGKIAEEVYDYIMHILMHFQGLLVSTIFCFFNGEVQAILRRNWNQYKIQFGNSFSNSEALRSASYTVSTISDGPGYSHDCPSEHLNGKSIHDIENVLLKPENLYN
Chain of hAM1 receptor (O60895 43-175 partner): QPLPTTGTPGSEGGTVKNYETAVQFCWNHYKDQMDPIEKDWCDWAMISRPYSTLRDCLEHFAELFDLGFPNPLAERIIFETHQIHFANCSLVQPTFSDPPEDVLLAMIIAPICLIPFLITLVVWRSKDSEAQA

Take `CC[C@H](C)[C@H](NC(=O)[C@H](CCC(N)=O)NC(=O)[C@H](CCCCNC(=O)COCCOCCNC(=O)COCCOCCNC(=O)CC[C@H](NC(=O)CCCCCCCCCCCCCCCCCCC(=O)O)C(=O)O)NC(=O)[C@H](C)NC(=O)[C@H](CC(C)C)NC(=O)[C@H](CCCNC(=N)N)NC(=O)[C@H](CCC(N)=O)NC(=O)[C@@H](NC(=O)[C@@H](NC(=O)[C@@H]1CSSC[C@H](NC(=O)[C@@H](N)CCCCN)C(=O)N[C@@H](CC(N)=O)C(=O)N[C@@H]([C@@H](C)O)C(=O)N[C@@H](C)C(=O)N[C@@H]([C@@H](C)O)C(=O)N1)[C@@H](C)O)C(C)C)C(=O)N[C@@H](Cc1ccc(O)cc1)C(=O)N[C@@H](CCC(N)=O)C(=O)N[C@@H](Cc1ccccc1)C(=O)N[C@H](C(=O)N[C@@H](CC(=O)O)C(=O)N[C@@H](CCCCN)C(=O)N[C@@H](CC(=O)O)C(=O)N[C@@H](CCCCN)C(=O)N[C@@H](CC(=O)O)C(=O)N[C@@H](CC(N)=O)C(=O)N[C@H](C(=O)N[C@@H](C)C(=O)N1CCC[C@H]1C(=O)N1CCC[C@H]1C(=O)N[C@H](C(=O)N[C@@H](CC(N)=O)C(=O)N[C@H](C(=O)NCC(=O)N[C@@H](CO)C(=O)N[C@@H](CC(N)=O)C(=O)NCC(=O)N1C[C@H](O)C[C@H]1C(N)=O)C(C)C)[C@@H](C)O)C(C)C)[C@@H](C)O` [compound 74] (H-KCNTATCTVQRLAK([AEEA-AEEA-γGlu-C20 diacid])QIYQFTDKDKDNVAPPTNVGSNG[Hyp]-NH2; disulfide 2-7; N-terminus assumed): the EC50 in test [1] was 0.013 nM; in test [2] it was above 5000 nM.
In the case of `CC[C@H](C)[C@H](NC(=O)[C@H](CCC(N)=O)NC(=O)[C@H](CCC(=O)O)NC(=O)[C@H](C)NC(=O)[C@H](CC(C)C)NC(=O)[C@H](CCCNC(=N)N)NC(=O)[C@H](CCC(N)=O)NC(=O)[C@@H](NC(=O)[C@@H](NC(=O)[C@@H]1CSSC[C@H](NC(=O)[C@@H](N)CCCCN)C(=O)N[C@@H](CC(N)=O)C(=O)N[C@@H]([C@@H](C)O)C(=O)N[C@@H](C)C(=O)N[C@@H]([C@@H](C)O)C(=O)N1)[C@@H](C)O)C(C)C)C(=O)N[C@@H](Cc1ccc(O)cc1)C(=O)N[C@@H](CCC(N)=O)C(=O)N[C@@H](Cc1ccccc1)C(=O)N[C@H](C(=O)N[C@@H](CC(=O)O)C(=O)N[C@@H](CCCCN)C(=O)N[C@@H](CC(=O)O)C(=O)N[C@@H](CCCCN)C(=O)N[C@@H](CC(=O)O)C(=O)N[C@@H](CC(N)=O)C(=O)N[C@H](C(=O)N[C@@H](C)C(=O)N1CCC[C@H]1C(=O)N1CCC[C@H]1C(=O)N[C@@H](Cc1ccc(O)cc1)C(=O)N[C@@H](CC(N)=O)C(=O)N[C@@H](CCC(=O)O)C(=O)NCC(=O)N[C@@H](CO)C(=O)N[C@@H](CC(N)=O)C(=O)NCC(=O)N1C[C@H](O)C[C@H]1C(N)=O)C(C)C)[C@@H](C)O` [compound 44] (H-KCNTATCTVQRLAEQIYQFTDKDKDNVAPPYNEGSNG[Hyp]-NH2; disulfide 2-7; N-terminus assumed), the EC50 was 0.01 nM in test [1] and above 5000 nM in test [2].
As to `CC[C@H](C)[C@@H](C(=O)N[C@@H](CC(C)C)C(=O)N[C@@H](CO)C(=O)N[C@@H](CO)C(=O)N[C@H](C(=O)N[C@@H](CCC(=O)O)C(=O)N[C@H](C(=O)NCC(=O)N[C@@H](CO)C(=O)N[C@@H](CC(N)=O)C(=O)N[C@H](C(=O)N1C[C@H](O)C[C@H]1C(N)=O)[C@@H](C)O)C(C)C)[C@@H](C)O)N(C)C(=O)[C@H](C)NC(=O)CN(C)C(=O)[C@H](Cc1ccccc1)NC(=O)[C@H](CO)NC(=O)[C@H](CO)NC(=O)[C@H](CCCNC(=N)N)NC(=O)[C@H](CCC(N)=O)NC(=O)[C@H](CC(C)C)NC(=O)[C@H](Cc1ccccc1)NC(=O)[C@H](CCCC(=O)O)NC(=O)[C@H](C)NC(=O)[C@H](CC(C)C)NC(=O)[C@H](CCCNC(=N)N)NC(=O)[C@H](CCC(=O)O)NC(=O)[C@@H](NC(=O)[C@H](C)NC(=O)[C@@H]1CSSC[C@H](NC(=O)[C@H](CCCNC(=N)N)NC(=O)CC[C@H](NC(=O)CCCCCCCCCCCCCCCCCCC(=O)O)C(=O)O)C(=O)NCC(=O)N[C@@H]([C@@H](C)O)C(=O)N[C@@H](C)C(=O)N[C@@H]([C@@H](C)O)C(=O)N1)[C@@H](C)O` [compound 76] ({C20 diacid-γGlu}-RCGTATCATERLA[Aad]FLQRSSF[Sar]A[NMeI]LSSTEVGSNT[Hyp]-NH2; disulfide 2-7), the results for the EC50 in test [1] and in test [2] were 0.014 nM and above 5000 nM, respectively.
As for `CC[C@H](C)[C@H](NC(=O)[C@H](CCC(N)=O)NC(=O)[C@H](Cc1c[nH]cn1)NC(=O)[C@H](C)NC(=O)[C@H](CC(C)C)NC(=O)[C@H](CCCNC(=N)N)NC(=O)[C@H](CCC(N)=O)NC(=O)[C@@H](NC(=O)[C@@H](NC(=O)[C@@H]1CSSC[C@H](NC(=O)[C@H](CCCCN)NC(=O)CC[C@H](NC(=O)CCCCCCCCCCCCCCCCCCC(=O)O)C(=O)O)C(=O)N[C@@H](CC(N)=O)C(=O)N[C@@H]([C@@H](C)O)C(=O)N[C@@H](CO)C(=O)N[C@@H]([C@@H](C)O)C(=O)N1)[C@@H](C)O)C(C)C)C(=O)N[C@@H](C)C(=O)N[C@@H](CCC(N)=O)C(=O)N[C@@H](Cc1ccccc1)C(=O)N[C@H](C(=O)N[C@@H](CC(=O)O)C(=O)N[C@@H](CCCCN)C(=O)N[C@@H](CC(=O)O)C(=O)N[C@@H](CCCCN)C(=O)N[C@@H](CC(=O)O)C(=O)N[C@@H](CC(N)=O)C(=O)N[C@H](C(=O)N[C@@H](C)C(=O)N1CCC[C@H]1C(=O)N1CCC[C@H]1C(=O)N[C@H](C(=O)N[C@@H](CC(N)=O)C(=O)N[C@H](C(=O)NCC(=O)N[C@@H](CO)C(=O)N[C@@H](CC(N)=O)C(=O)NCC(=O)N1C[C@H](O)C[C@H]1C(N)=O)C(C)C)[C@@H](C)O)C(C)C)[C@@H](C)O` [compound 62] ({C20 diacid-γGlu}-KCNTSTCTVQRLAHQIAQFTDKDKDNVAPPTNVGSNG[Hyp]-NH2; disulfide 2-7), the figures for the EC50 in test [1] and in test [2] were 0.012 nM and above 5000 nM, respectively.
In the case of `CC[C@H](C)[C@H](NC(=O)[C@H](CCC(N)=O)NC(=O)[C@H](Cc1c[nH]cn1)NC(=O)[C@H](C)NC(=O)[C@H](CC(C)C)NC(=O)[C@H](CCCNC(=N)N)NC(=O)[C@H](CCC(N)=O)NC(=O)[C@@H](NC(=O)[C@@H](NC(=O)[C@@H]1CSSC[C@H](NC(=O)[C@H](CCCCN)NC(=O)CC[C@H](NC(=O)CCCCCCCCCCCCCCCCCCC(=O)O)C(=O)O)C(=O)N[C@@H](CC(N)=O)C(=O)N[C@@H]([C@@H](C)O)C(=O)N[C@@H](C)C(=O)N[C@@H]([C@@H](C)O)C(=O)N1)[C@@H](C)O)C(C)C)C(=O)N[C@@H](Cc1ccc(O)cc1)C(=O)N[C@@H](CCC(N)=O)C(=O)N[C@@H](Cc1ccccc1)C(=O)N[C@@H](Cc1ccc(O)cc1)C(=O)N[C@@H](CC(=O)O)C(=O)N[C@@H](CCCCN)C(=O)N[C@@H](CC(=O)O)C(=O)N[C@@H](CCCCN)C(=O)N[C@@H](CC(=O)O)C(=O)N[C@@H](CC(N)=O)C(=O)N[C@H](C(=O)N[C@@H](C)C(=O)N1CCC[C@H]1C(=O)N1CCC[C@H]1C(=O)N[C@H](C(=O)N[C@@H](CC(N)=O)C(=O)N[C@H](C(=O)NCC(=O)N[C@@H](CO)C(=O)N[C@@H](CC(N)=O)C(=O)NCC(=O)N1C[C@H](O)C[C@H]1C(N)=O)C(C)C)[C@@H](C)O)C(C)C` [compound 104] ({C20 diacid-γGlu}-KCNTATCTVQRLAHQIYQFYDKDKDNVAPPTNVGSNG[Hyp]-NH2; disulfide 2-7), the results for the EC50 in test [1] and in test [2] were 0.018 nM and above 5000 nM, respectively.
For `CC[C@H](C)[C@H](NC(=O)[C@H](C)NC(=O)CNC(=O)[C@H](Cc1ccccc1)NC(=O)[C@H](CC(N)=O)NC(=O)[C@H](CC(N)=O)NC(=O)[C@H](CO)NC(=O)[C@H](CO)NC(=O)[C@H](Cc1c[nH]cn1)NC(=O)[C@@H](NC(=O)[C@H](CC(C)C)NC(=O)[C@H](Cc1ccccc1)NC(=O)[C@H](CC(N)=O)NC(=O)[C@H](C)NC(=O)[C@H](CC(C)C)NC(=O)[C@H](CCCNC(=N)N)NC(=O)[C@H](CCC(N)=O)NC(=O)[C@@H](NC(=O)[C@H](C)NC(=O)[C@@H]1CSSC[C@H](NC(=O)[C@@H](N)CCCCN)C(=O)N[C@@H](CC(N)=O)C(=O)N[C@@H]([C@@H](C)O)C(=O)N[C@@H](C)C(=O)N[C@@H]([C@@H](C)O)C(=O)N1)[C@@H](C)O)C(C)C)C(=O)N[C@@H](C)C(=O)N1CCC[C@H]1C(=O)N[C@@H](CO)C(=O)N[C@H](C(=O)N[C@@H](CCCCN)C(=O)N[C@H](C(=O)NCC(=O)N1CCC[C@H]1C(=O)N[C@@H](CC(N)=O)C(=O)NCC(=O)N[C@@H](Cc1ccc(O)cc1)C(N)=O)[C@@H](C)CC)[C@@H](C)O` [compound 128] (H-KCNTATCATQRLANFLVHSSNNFGAIAPSTKIGPNGY-NH2; disulfide 2-7; N-terminus assumed), the EC50 in test [1] was determined as 0.028 nM; in test [2], 130 nM.

One may read the EC50 as the concentration at which the effect is half-maximal.
